Assay results as given in patent publication US8697662B2, “Methods for treating Kaposi sarcoma” (PTC Therapeutics, Inc., priority 2009, dated 2014).
Each block holds one molecule with its values, some of them ahead of it.

Assays:
[1] = system: hypoxia-inducible endogenous VEGF expression; experiment: Hypoxia-inducible endogenous VEGF expression ELISA in HeLa cells, dose-response EC50 (Table 3); format: cell-based; conditions: Homo sapiens, hypoxic conditions (1% O2), VEGF ELISA of conditioned media
Procedure: The ability of the Compounds to modulate hypoxia-inducible endogenous VEGF expression may be analyzed as follows. VEGF protein levels may be monitored by an ELISA assay (R&D Systems). Briefly, HeLa cells may be cultured for 24-48 hours under hypoxic conditions (1% O2, 5% CO2, balanced with nitrogen) in the presence or absence of a Compound. The conditioned media may then be assayed by ELISA, and the concentration of VEGF calculated from the standard ELISA curve of each assay.
A dose-response analysis may be performed using the ELISA assay and conditions described above. The conditions for the dose-response ELISA are analogous to those described above. A series of, e.g., seven different concentrations may be analyzed. In parallel, a dose-response cytotoxicity assay may be performed using Cell Titer Glo (Promega) under the same conditions as the ELISA to ensure that the inhibition of VEGF expression was not due to the cytotoxicity.

[2] = system: HT1080 xenografts; experiment: BrdU labeling of tumor cells from HT1080 xenografts in vivo; parameters: species or system athymic nude mice; conditions: HT1080 xenografts, 1, 2, or 3 days of treatment
Procedure: (§1) Experimental Design. HT1080 cells (5×10^6 cells/mouse) were implanted subcutaneously in male athymic nude mice.
The mice were sacrificed 3 hours later, and the tumors collected. A single cell suspension was prepared from the tumor cells. The cells were permeabilized and an antibody to BrdU was used to stain cells that had entered S phase during the labeling period. The proportion of cells actively synthesizing DNA was determined by cell sorting.

[3] = system: HT1080 xenografts; experiment: Time course of tumor size and plasma human VEGF in HT1080 xenografts; format: in vivo, athymic nude mice; conditions: by Day 1
Procedure: as §1
Tumor size was measured by calipers immediately pre-treatment and at the time of sacrifice on Day 1, 2, or 3 (5 mice per group per day). At sacrifice, the plasma was collected for assay of pathologic human VEGF concentration using an ELISA that recognizes human VEGF121 and VEGF165 (as described in Section 9.1.1.1).

[4] = system: KS-like angioproliferative lesions; conditions: nude mice, doses similar to AIDS patients; cited from earlier work
[5] = system: HT1080 cells; experiment: Cell cycle analysis by propidium iodide flow cytometry in HT1080 cells (S-phase accumulation, Table 24); format: cell-based, human; conditions: same tumor cells; data not shown
Procedure: Experimental Design. […] After treatment, cells were trypsinized, and stained with propidium iodide (PI) dye to measure DNA content of individual cells by flow cytometry. Output comprised histograms showing relative DNA content in 10,000 cells.
While compounds which cause greater than 20% of the cells to accumulate in S-phase at 100 nM are considered active, a larger percentage of cells may be accumulated in S-phase at lower doses depending on the Compound, as shown in FIG. 12 for example.

[6] = system: primary endothelial cells; conditions: in-vitro; cited from earlier work

EC50 [1]: < 8 nM
Compound: NC(=O)COc1ccc(C2c3[nH]c4ccc(Cl)cc4c3CCN2C(=O)Oc2ccc(Cl)cc2)cc1 (stereo not drawn) [Compound 1161]

EC50 ([1]; 24-48 hours): 8 to 40 nM
Compound: CC(CO)(CO)COc1ccc([C@H]2c3[nH]c4ccc(Cl)cc4c3CCN2C(=O)Oc2ccc(F)cc2)cc1 [Compound 1335]

Compound: COc1cccc2c1C(=O)c1c(O)c3c(c(O)c1C2=O)C[C@@](O)(C(=O)CO)C[C@@H]3O[C@H]1C[C@H](N)[C@H](O)[C@H](C)O1 [doxorubicin, reference compound]
BrdU staining of tumor cells (fraction in S phase) (in words) [2]: decreased the percentage of tumor cells staining with BrdU | pathologic plasma human VEGF levels (in words) [3]: numerically lower than in control animals

Compound: CC(C)(C)NC(=O)[C@@H]1CN(Cc2cccnc2)CCN1C[C@@H](O)C[C@@H](Cc1ccccc1)C(=O)N[C@H]1c2ccccc2C[C@H]1O [indinavir]
macroscopic KS-like angioproliferative lesions (in words) [4]: reduction in the number and size

Compound: NC(Cn1ccc(=O)c(O)c1)C(=O)O (stereo not drawn) [mimosine, reference compound]
effect on cell cycle (and VEGF production) (in words) [5]: does not delay or prolong the cell cycle or reduce VEGF production

Compound: CC(C)c1nc(CN(C)C(=O)N[C@H](C(=O)N[C@@H](Cc2ccccc2)C[C@H](O)[C@H](Cc2ccccc2)NC(=O)OCc2cncs2)C(C)C)cs1 [ritonavir]
activation and proliferation of primary endothelial cells (in words) [6]: inhibition of activation and proliferation | production of TNF-α, IL-6, IL-8 and VEGF (in words) [6]: decreased production

Compound: CC(C)(C)NC(=O)[C@@H]1C[C@@H]2CCCC[C@@H]2CN1C[C@@H](O)[C@H](Cc1ccccc1)NC(=O)[C@H](CC(N)=O)NC(=O)c1ccc2ccccc2n1 [saquinavir]
macroscopic KS-like angioproliferative lesions (in words) [4]: reduction in the number and size
